Test results: paper PMC8389915, “Synthesis and Preclinical Validation of Novel Indole Derivatives as a GPR17 Agonist for Glioblastoma Treatment” (Journal of Medicinal Chemistry, 2021)

Target: G protein-coupled receptor 17 (GPR17) (Homo sapiens, UniProt Q13304)
Sequence (Q13304 whole entry): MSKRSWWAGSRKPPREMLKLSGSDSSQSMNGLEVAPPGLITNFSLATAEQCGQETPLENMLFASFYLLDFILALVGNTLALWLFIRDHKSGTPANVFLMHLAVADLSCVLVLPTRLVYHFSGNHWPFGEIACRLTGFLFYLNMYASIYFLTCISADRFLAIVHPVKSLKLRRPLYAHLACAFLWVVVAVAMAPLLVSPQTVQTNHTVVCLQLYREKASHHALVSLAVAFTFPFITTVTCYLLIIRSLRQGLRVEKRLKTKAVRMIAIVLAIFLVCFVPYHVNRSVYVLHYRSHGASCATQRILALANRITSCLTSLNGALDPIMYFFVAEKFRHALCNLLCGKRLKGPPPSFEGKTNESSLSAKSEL

O=C(Nc1ccccc1)Oc1cc(OC(=O)Nc2ccccc2)c2c(c1)N(C(c1ccc(F)cc1)c1cccc(Cl)c1O)CC2 (stereo not shown) [CHBC, 1-((3-chloro-2-hydroxyphenyl)(4-fluorophenyl)methyl)indoline-4,6-diyl bis(phenylcarbamate)]
EC50: 19.2 µM
